Measurements published in the METLIN SMRT retention time set (Domingo-Almenara et al. 2019).

Experiment: gradient 5% acetonitrile 3 min, to 50% in 2 min, to 85% in 15 min, held 3 min, 100 µL/min
Conditions: column: Zorbax Extend-C18 2.1 x 50 mm; eluents: water / acetonitrile, 0.1% formic acid
Procedure, shortened: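 The system's dead and dwell volumes were 40 μL and 900 μL, with a Zorbax Extend-C18 column (2.1 × 50 mm, 1.8 μm) run at 100 μL/min in water and acetonitrile containing 0.1% formic acid each. Pure standards were analyzed in mixtures of ~100 molecules by HPLC–quadrupole time-of-flight mass spectrometry in positive and negative ionization mode. Retention time was assigned from computationally picked, manually inspected adduct peaks.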

Row | RP-LC retention time | Compound
1 | 670 s | COCc1nnc(NC(=O)C2CCN(C(=O)c3ccccc3Cl)CC2)s1
2 | 818 s | CC(C(=O)N1CCCC1)C1CCN(C(=O)c2ccc3nc(-c4ccccc4)oc3c2)CC1 (stereo not drawn)
3 | 652 s | Cc1nc2cc(-c3ccccc3)nn2c(C)c1CCC(=O)N1CCN(c2ccccn2)CC1
4 | 788 s | COc1cccc(C(=O)NC(c2ccccc2)c2nnc(N3CCCC3)o2)c1 (stereo not drawn)
5 | 613 s | Cc1nc2cccnc2n1C1CCN(C(=O)Nc2ccc3c(c2)OCO3)CC1
6 | 924 s | CCOC(=O)c1nnc2c(-c3ccccc3OC)c(C)nn2c1C
7 | 812 s | O=C(O)c1cccc2c1CCN2S(=O)(=O)c1ccccc1F
8 | 766 s | CN(C(=O)C1CCCN(c2ncnc3c2nc2n3CCCCC2)C1)c1ccccc1 (stereo not drawn)
9 | 701 s | CCOC(=O)c1c(S(=O)(=O)N2CCC(C(=O)Nc3cccc(C)n3)CC2)c(C)n(C)c1C
10 | 658 s | CCn1cnc(S(=O)(=O)N2CCC(C(=O)NCc3cccs3)CC2)c1
11 | 686 s | CCc1nncn1C1CCN(S(=O)(=O)c2ccccc2C)CC1
12 | 1120 s | CC(C)c1nc(-c2ccc(OC3CCN(C(=O)C4(c5ccccc5)CC4)C3)cc2)no1 (stereo not drawn)
13 | 589 s | O=C(Nc1cccnc1)c1ccc(Cl)c(S(=O)(=O)N2CCOCC2)c1
14 | 1100 s | CCN1C(=O)C2(CCN(S(=O)(=O)c3ccc(Cl)c(C)c3)CC2)c2ccccc21
15 | 944 s | CCOc1ccc2nc(NC(=O)Cn3nc(C(=O)N4CCCCC4)c4ccccc43)sc2c1
16 | 698 s | COc1cccc(CNC(=O)N2CCC(N3CCN(Cc4ccccc4)C(=O)C3=O)CC2)c1
17 | 651 s | O=C(c1cccc(-n2cnnn2)c1)N1CCC(c2nnc(-c3ccco3)s2)CC1
18 | 1060 s | CCCn1c(=O)sc2cc(S(=O)(=O)N3CCC(C(=O)Nc4ccc(C)c(F)c4)CC3)ccc21
19 | 907 s | O=C(NCC(O)C1CCCCC1)C(c1ccccc1)c1ccccc1 (stereo not drawn)
20 | 896 s | CN(C)S(=O)(=O)c1ccc2c(c1)N(CC(=O)NCc1ccc(F)cc1)C(=O)C1CCCCN21 (stereo not drawn)
21 | 623 s | CCN1CCN(c2c(S(=O)(=O)c3ccccc3)cnc3cc(OC)c(OC)cc23)CC1
22 | 648 s | Cn1ccc2cc(S(=O)(=O)N3CCC(C(=O)N4CCN(c5ccccn5)CC4)CC3)ccc21
23 | 894 s | Cn1nc(-c2nnc(-c3ccccc3F)o2)c2c1CCN(S(=O)(=O)c1ccc(C#N)cc1)C2
24 | 664 s | Cc1c(C(=O)N2CCC(C)CC2)c(S(=O)(=O)N2CCN(c3ccccn3)CC2)c(C)n1C
25 | 622 s | CCCc1cc(N2CCN(C(=O)c3ccc4c(c3)OCO4)CC2)nc2nncn12
26 | 960 s | Cc1ccc(CNC(=O)C2(C)CCCN(S(=O)(=O)c3ccccc3)C2)cc1 (stereo not drawn)
27 | 623 s | CCc1nc(N)n(CC(=O)NCc2ccccc2)c(=O)c1C

More lines, now with the values behind:

Row | Compound | RP-LC retention time
28 | COc1ccc(Cn2c(=O)c3sccc3n(Cc3nc(-c4ccc(SC)cc4)no3)c2=O)cc1 | 1160 s
29 | COCc1cc(=O)n(CC(=O)Nc2ccc(F)c(Cl)c2)c(N2CCOCC2)n1 | 917 s
30 | CCOC(=O)c1c(C)oc2nc(C)nc(NCCN(Cc3ccccc3)C(C)C)c12 | 735 s
31 | O=C(NC1CCCCC1)C1CCc2ncc(-c3ccsc3)n2C1 (stereo not drawn) | 584 s
32 | Cc1ccnc(OCC(=O)Nc2cc(C)on2)n1 | 612 s
33 | CCOc1cc(C(=O)Nc2cc(-c3cn4cccnc4n3)ccc2OC)cc(OCC)c1OCC | 831 s
34 | O=C(NCCc1ccc(N2CCCC2)cc1)C(=O)Nc1ccc(OC(F)(F)F)cc1 | 1090 s
35 | O=C(Nc1ccc(F)cc1F)NC1CCN(c2ccc(F)cc2)C1=O (stereo not drawn) | 823 s
36 | C=CCn1c(=O)c2ccccc2n(Cc2nc(-c3ccccc3)no2)c1=O | 1000 s
37 | CC(=O)Nc1ccc(C(=O)NC2CCN(c3cc(-c4cccs4)[nH]n3)C2)cc1 (stereo not drawn) | 641 s
38 | COc1ccc(N2CC(c3noc(-c4cc(F)ccc4F)n3)CC2=O)cc1 (stereo not drawn) | 849 s
39 | O=C(Cn1nc2c(N3CCc4ccccc4C3)nccn2c1=O)Nc1ccccc1Cl | 896 s
40 | O=C(CCNc1c(-c2cccc(F)c2)nc2cnccn12)N1CCOCC1 | 630 s
41 | COc1ccc(-n2c(N)cc(=O)nc2SCC(=O)Nc2cc(C)on2)cc1 | 588 s
42 | COc1cc(C2C(C(=O)N3CCCCC3)=C(C)NC3=C2C(=O)CC(C)(C)C3)cc(OC)c1O (stereo not drawn) | 1050 s
43 | CN(C)C(=O)c1ccc2c(c1)n(Cc1ccc(F)cc1)c(=O)c1ccnn12 | 780 s
44 | O=C(Cc1cccs1)NCc1cc(-c2ccc(Cl)cc2)on1 | 858 s
45 | Clc1cc(Br)ccc1-c1ccc(CNCC2CCNCC2)o1 | 605 s
46 | Fc1ccccc1-c1noc(-c2nc(C3CC3)no2)n1 | 1050 s
47 | Cc1ccc(-c2noc(-c3cccn4c(=O)n(Cc5ccc6c(c5)OCO6)nc34)n2)cc1 | 1010 s
48 | NC(=O)Cn1c(CCc2ccccc2)nc2ccccc21 | 581 s

Row | Compound | RP-LC retention time
49 | Cc1ccc(S(=O)(=O)NCC(=O)Nc2ccc3c(c2)Cc2ccccc2-3)cc1 | 975 s
50 | Cc1ccc2c(Nc3ccc4c(c3)OCCO4)c(C(=O)N3CCCC3)cnc2n1 | 592 s
51 | CCOC(=O)c1ccc(NC(=O)c2cnn(-c3ccc(Br)cc3)c2)cc1 | 1070 s
52 | Cc1noc(C)c1Cc1ccc(C(=O)N(C)C2CCc3nnc(C)n3CC2)o1 (stereo not drawn) | 602 s
53 | Cc1cc(C2CCCN2C(=O)Nc2ccc(C)c(F)c2)no1 (stereo not drawn) | 818 s
54 | O=C(CSc1nccn1-c1cccc(C(F)(F)F)c1)Nc1nccs1 | 728 s
55 | Cc1ccc(CNC(=O)C2(C)CCCN(C(=O)Nc3cccc(Cl)c3C)C2)cc1 (stereo not drawn) | 1060 s
56 | O=C(Cn1ccc2c(SCc3ccc(F)cc3)nccc21)NCc1ccc(N2CCOCC2)cc1 | 706 s
57 | O=C([C@@H]1C[C@H](Oc2ccccc2)CN1C(=O)CCc1nc2ccccc2s1)N1CCCC1 | 815 s
58 | COC(=O)c1ccc(-c2nc3cnccn3c2Nc2cccc(C)c2C)cc1 | 980 s
59 | CC(C)CCNC(=O)Cn1ccn2nc(-c3ccccc3)c(CO)c2c1=O | 758 s
60 | O=C1Nc2cc(C(=O)N3CCN(C(=O)c4ccco4)CC3)ccc2N2CCCCC12 (stereo not drawn) | 677 s
61 | CC1CCc2cc(F)cc3c(=O)c(C(=O)O)cn1c23 (stereo not drawn) | 806 s
62 | CCOC(=O)c1[nH]c(C)c(CN(Cc2ccco2)C(=O)Cc2ccc(F)cc2)c1C | 1020 s
63 | CC1CCN(c2cc3c(cc2NC(=O)c2ccco2)n(C)c(=O)c(=O)n3C)CC1 | 632 s
64 | COc1ccc(-c2nc3cnccn3c2Nc2ccccc2OC)cc1 | 863 s
65 | CCCC(NC(=O)c1ccc(C)cc1C)C(=O)Nc1nc2ccccc2[nH]1 (stereo not drawn) | 735 s
66 | CCOc1ccccc1OCc1nn2c(CSc3ccccc3)nnc2s1 | 1000 s
67 | CC(=O)N1CCC(c2nc(-c3ccc(CNC(=O)C4CC4)s3)no2)CC1 | 661 s
68 | COC(=O)c1ccc2c(=O)n(-c3cccc(Cl)c3)c(N3CCOCC3)nc2c1 | 998 s
69 | Cc1cn(C)c(CC(=O)NCc2ccco2)c1C(=O)O | 671 s

Row | Compound | RP-LC retention time
70 | CCCN(CC1CC1)C(=O)CCC[C@@H]1[C@H]2CCCN3CCC[C@@H](CN1C(C)=O)[C@@H]23 | 618 s
71 | CS(=O)(=O)N1CC(C(=O)Nc2ccccc2-c2ccccc2)Oc2ccccc21 (stereo not drawn) | 1090 s
72 | Cc1ccc(-c2ncc(C(=O)Nc3ccccc3Br)c(-c3ccncc3)n2)cc1 | 994 s
73 | CCN(CC)CCNC(=O)CC1Sc2ccccc2NC1=O (stereo not drawn) | 591 s
74 | Cc1ccc2c(=O)c(C(=O)N3CCCC3)cn(CC(=O)Nc3ccc(F)c(F)c3)c2n1 | 720 s
75 | CCOc1ccc(CNC(=O)C2(c3ccc(NC(C)=O)cc3)CCCCC2)cc1 | 866 s
76 | Cc1ccc2nc(-c3cccnc3)cc(C(=O)Nc3nc(-c4ccccc4)c(C)s3)c2c1 | 1070 s
77 | COc1ccccc1OCCNC(=O)COc1ccc(NC(=O)C2CC2)cn1 | 708 s
78 | O=C(Cn1cnc2nc(N3CCC(C(=O)NC4CC4)CC3)sc2c1=O)Nc1ccc2c(c1)CCC2 | 670 s
79 | Cc1cccc(NC(=O)Cn2nc3c(Oc4ccc(Cl)cc4)nccn3c2=O)c1 | 930 s
80 | Cc1cc(NC(=O)Cn2ccn3nc(-c4ccccc4)c(CO)c3c2=O)ccc1Br | 917 s
81 | COc1ccc(NC(=O)Cn2nc3c(N4CCSCC4)nccn3c2=O)cc1OC | 720 s
82 | c1ccc(-c2nc(N3CCCCCC3)c3ccccc3n2)cc1 | 768 s
83 | COc1ccc(Br)c2c1-c1nc(NC(=O)c3ccccc3F)sc1C2 | 1130 s
84 | Cc1ccc(C(=O)N2CCCC2c2c(C)noc2C)cc1 (stereo not drawn) | 760 s
85 | Cn1c(CCNC(=O)c2ccc(C(F)(F)F)cc2)nc2cccnc21 | 686 s
86 | Cc1ccnc(C(=O)Nc2cccc(Cl)c2Cl)n1 | 866 s
87 | CC(C)c1cc(C(=O)Nc2ccc(Cl)cc2)no1 | 1080 s
88 | CC(C)NC(=O)N1CCCC(c2cccc(C(=O)NCc3ccc(OC(C)C)cc3)c2)C1 (stereo not drawn) | 939 s
